Data as given in US6093732A, “4-hydroxyquinoline-3-carboxamides and hydrazides as antiviral agents” (Pharmacia & Upjohn Company, priority 1998, dated 2000).

Columns and labels:
Assay type in all cases: biochemical
[1] = molecular target: HSV polymerase (Human herpesvirus 1, UniProt P04293); assay: HSV polymerase assay (procedure similar to the HCMV polymerase SPA); conditions: Table 1, read-out: Antiviral Selective Polymerase IC50 Values, HSV
Procedure: (§1) The HCMV polymerase assay is performed using a scintillation proximity assay (SPA) as described in several references, such as N. D. Cook, et al., Pharmaceutical Manufacturing International, pages 49-53 (1992); K. Takeuchi, Laboratory Practice, September issue (1992); U.S. Pat. No. 4,568,649 (1986); which are incorporated by reference herein. Reactions are performed in 96-well plates. The assay is conducted in 100 μl volume with 5.4 mM HEPES (pH 7.5), 11.7 mM KCl, 4.5 mM MgCl2, 0.36 mg/ml BSA, and 90 nM ^3 H-dTTP. Assays are run with and without CHAPS, (3-[(3-Cholamidopropyl)-dimethylammonio]-1-propane-sulfonate) at a final concentration of 2 mM. HCMV polymerase is diluted in enzyme dilution buffer containing 50% glycerol, 250 mM NaCl, 10 mM HEPES (pH 7.5), 100 μg/ml BSA, and 0.01% sodium azide. The HCMV polymerase, which is expressed in recombinant baculovirus-infected SF-9 cells and purified according to literature procedures, is added at 10% (or 10 μl) of the final reaction volume, i.e., 100 μl. Compounds are diluted in 50% DMSO and 10 μl are added to each well. Control wells contain an equivalent concentration of DMSO. Unless noted otherwise, reactions are initiated via the addition of 6 nM biotinylated poly(dA)-oligo(dT) template/primer to reaction mixtures containing the enzyme, substrate, and compounds of interest. Plates are incubated in a 25° C. or 37° C. H2 O bath and terminated via the addition of 40 μl/reaction of 0.5 M EDTA (pH 8) per well. Reactions are terminated within the time-frame during which substrate incorporation is linear and varied depending upon the enzyme and conditions used, i.e., 30 min. for HCMV polymerase. Ten μl of streptavidin-SPA beads (20 mg/ml in PBS/10% glycerol) are added following termination of the reaction. Plates are incubated 10 min. at 37° C., then equilibrated to room temperature, and counted on a Packard Topcount. Linear regressions are performed and IC50 's are calculated using computer software.
(§2) A modified version of the above HCMV polymerase assay is performed as described above, but with the following changes: Compounds are diluted in 100% DMSO until final dilution into assay buffer. In the previous assay, compounds are diluted in 50% DMSO. 4.5 mM dithiotherotol (DTT) is added to the polymerase buffer. […] Other viral polymerase assays are performed using procedures similar to those described above.

[2] = molecular target: T1, HCMV polymerase (Human cytomegalovirus, UniProt P08546); assay: HCMV polymerase scintillation proximity assay (SPA), modified version; conditions: CMV polymerase; Table 1; modified assay with 4.5 mM DTT, compounds in 100% DMSO; read-out: Antiviral Selective Polymerase IC50 Values, CMV
T1 construct: made in house; host or cells: recombinant baculovirus-infected SF-9 cells
T1 sequence (P08546 whole entry): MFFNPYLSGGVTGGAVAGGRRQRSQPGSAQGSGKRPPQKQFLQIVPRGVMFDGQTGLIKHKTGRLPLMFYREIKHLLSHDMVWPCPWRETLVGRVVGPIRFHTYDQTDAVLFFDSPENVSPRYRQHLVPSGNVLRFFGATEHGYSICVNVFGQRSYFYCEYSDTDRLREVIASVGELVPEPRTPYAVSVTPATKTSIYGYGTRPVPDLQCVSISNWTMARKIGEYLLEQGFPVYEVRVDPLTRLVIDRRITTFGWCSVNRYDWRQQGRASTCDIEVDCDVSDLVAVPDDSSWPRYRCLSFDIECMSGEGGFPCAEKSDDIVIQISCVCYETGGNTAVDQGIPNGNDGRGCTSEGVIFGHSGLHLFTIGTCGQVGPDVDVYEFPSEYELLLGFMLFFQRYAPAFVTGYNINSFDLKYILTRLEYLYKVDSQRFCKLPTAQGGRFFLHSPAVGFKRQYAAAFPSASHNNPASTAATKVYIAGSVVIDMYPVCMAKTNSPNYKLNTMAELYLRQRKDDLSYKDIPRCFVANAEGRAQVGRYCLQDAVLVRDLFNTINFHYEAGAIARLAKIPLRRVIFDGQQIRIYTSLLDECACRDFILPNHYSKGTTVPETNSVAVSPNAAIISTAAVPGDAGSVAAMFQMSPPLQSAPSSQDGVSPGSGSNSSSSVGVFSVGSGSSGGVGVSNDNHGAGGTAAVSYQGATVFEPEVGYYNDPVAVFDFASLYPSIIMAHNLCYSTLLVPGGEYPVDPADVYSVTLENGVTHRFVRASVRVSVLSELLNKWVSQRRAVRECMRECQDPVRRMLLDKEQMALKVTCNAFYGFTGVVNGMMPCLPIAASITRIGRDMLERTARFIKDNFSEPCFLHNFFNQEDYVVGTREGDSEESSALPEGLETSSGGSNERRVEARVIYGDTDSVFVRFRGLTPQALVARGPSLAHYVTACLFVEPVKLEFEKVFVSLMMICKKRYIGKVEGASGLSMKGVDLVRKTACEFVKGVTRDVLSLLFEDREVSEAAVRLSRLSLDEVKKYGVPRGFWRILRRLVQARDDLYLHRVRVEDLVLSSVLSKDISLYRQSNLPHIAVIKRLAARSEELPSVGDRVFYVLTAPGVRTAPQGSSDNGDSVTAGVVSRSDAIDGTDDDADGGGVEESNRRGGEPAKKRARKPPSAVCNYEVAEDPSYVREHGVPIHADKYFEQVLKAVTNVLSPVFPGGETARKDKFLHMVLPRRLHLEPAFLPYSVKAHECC
Outline: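 SPA measuring 3H-dTTP (90 nM) incorporation on 6 nM biotinylated poly(dA)-oligo(dT) by SF-9-expressed enzyme, pH 7.5 HEPES/KCl/MgCl2/BSA buffer with or without 2 mM CHAPS. Run at 25° C or 37° C, stopped with EDTA while linear (HCMV 30 min); IC50 from linear regression. Modified format adds 4.5 mM DTT, compounds diluted in 100% DMSO.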

[3] = molecular target: VZV polymerase (Varicella-zoster virus, UniProt P09252); assay: VZV polymerase assay (procedure similar to the HCMV polymerase SPA); conditions: Table 1, read-out: Antiviral Selective Polymerase IC50 Values, VZV
VZV polymerase, sequence (P09252 whole entry): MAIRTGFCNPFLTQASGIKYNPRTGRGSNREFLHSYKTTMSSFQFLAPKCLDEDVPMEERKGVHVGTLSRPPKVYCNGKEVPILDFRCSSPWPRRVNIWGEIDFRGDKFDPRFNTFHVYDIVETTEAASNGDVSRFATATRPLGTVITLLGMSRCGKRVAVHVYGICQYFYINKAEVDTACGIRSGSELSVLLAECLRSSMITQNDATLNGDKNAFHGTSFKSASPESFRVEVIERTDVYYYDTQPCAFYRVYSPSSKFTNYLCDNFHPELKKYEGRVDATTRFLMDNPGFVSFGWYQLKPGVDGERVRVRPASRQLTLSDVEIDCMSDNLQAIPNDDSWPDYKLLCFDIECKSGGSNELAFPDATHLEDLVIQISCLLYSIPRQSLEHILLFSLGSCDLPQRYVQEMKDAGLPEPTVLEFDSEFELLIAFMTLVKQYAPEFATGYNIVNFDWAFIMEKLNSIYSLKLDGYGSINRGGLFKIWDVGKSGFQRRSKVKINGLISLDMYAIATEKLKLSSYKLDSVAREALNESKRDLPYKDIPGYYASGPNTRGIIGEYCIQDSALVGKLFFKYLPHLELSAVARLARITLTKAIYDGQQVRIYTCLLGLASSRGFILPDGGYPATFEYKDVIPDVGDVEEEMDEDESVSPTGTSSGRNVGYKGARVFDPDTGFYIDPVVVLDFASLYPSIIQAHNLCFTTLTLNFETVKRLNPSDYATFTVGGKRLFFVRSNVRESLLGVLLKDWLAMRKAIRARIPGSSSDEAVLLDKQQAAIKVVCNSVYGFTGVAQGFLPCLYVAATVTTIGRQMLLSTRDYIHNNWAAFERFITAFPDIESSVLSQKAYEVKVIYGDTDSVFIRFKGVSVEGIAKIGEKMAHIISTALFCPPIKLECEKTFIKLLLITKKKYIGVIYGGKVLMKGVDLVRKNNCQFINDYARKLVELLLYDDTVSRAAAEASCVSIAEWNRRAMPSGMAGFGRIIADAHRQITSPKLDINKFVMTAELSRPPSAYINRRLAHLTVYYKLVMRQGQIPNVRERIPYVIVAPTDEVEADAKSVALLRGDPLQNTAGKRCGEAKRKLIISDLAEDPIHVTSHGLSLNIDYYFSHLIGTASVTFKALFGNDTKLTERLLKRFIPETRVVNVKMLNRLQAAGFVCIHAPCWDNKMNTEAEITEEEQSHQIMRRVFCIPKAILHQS
Procedure: as §1, §2

HSV polymerase, sequence (P04293 whole entry): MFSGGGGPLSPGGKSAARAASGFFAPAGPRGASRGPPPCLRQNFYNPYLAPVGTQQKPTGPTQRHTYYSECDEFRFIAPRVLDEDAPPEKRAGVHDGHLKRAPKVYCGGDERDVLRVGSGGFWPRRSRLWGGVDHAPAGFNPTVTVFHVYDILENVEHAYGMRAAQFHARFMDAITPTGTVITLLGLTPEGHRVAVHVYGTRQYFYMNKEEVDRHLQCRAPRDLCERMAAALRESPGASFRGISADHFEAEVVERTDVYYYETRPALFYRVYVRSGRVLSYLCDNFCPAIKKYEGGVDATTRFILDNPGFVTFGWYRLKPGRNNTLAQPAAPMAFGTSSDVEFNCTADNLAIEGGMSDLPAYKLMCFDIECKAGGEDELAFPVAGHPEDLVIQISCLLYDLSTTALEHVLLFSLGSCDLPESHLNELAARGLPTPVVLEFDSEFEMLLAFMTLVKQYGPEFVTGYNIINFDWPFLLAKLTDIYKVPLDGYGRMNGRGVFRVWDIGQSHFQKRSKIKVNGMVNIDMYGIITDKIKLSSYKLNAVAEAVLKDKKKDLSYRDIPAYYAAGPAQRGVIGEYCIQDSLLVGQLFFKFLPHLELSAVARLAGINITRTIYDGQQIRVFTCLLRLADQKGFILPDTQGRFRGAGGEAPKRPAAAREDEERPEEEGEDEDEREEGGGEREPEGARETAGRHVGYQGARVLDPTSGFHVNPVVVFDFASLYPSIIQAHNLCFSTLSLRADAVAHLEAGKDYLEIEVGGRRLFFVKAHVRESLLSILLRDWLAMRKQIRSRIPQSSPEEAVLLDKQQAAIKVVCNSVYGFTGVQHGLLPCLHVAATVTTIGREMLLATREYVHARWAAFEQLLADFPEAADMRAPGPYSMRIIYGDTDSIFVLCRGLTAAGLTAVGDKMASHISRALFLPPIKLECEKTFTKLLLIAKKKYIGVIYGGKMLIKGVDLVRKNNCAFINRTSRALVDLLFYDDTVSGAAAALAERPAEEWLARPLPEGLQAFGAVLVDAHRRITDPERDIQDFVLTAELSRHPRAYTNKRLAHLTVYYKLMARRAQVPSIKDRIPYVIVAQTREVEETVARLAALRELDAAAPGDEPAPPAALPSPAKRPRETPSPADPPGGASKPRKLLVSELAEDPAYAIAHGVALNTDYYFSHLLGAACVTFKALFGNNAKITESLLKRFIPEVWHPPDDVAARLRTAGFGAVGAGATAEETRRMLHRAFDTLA

Row | SMILES | IC50 [1] | IC50 [2] | IC50 [3]
1 | O=C(NCc1ccc(Cl)cc1)c1cnc2ccc(C#CCO)cc2c1O [Example 134, N-(4-Chlorobenzyl)-4-hydroxy-6-(3-hydroxy-1-propynyl)-3-quinolinecarboxamide] | 720 nM | 900 nM | 190 nM
2 | Nc1ccc2c(O)c(C(=O)NCc3ccc(Cl)cc3)cnc2c1 [Example 2, 7-Amino-N-[(4-chlorophenyl)methyl]-4-hydroxy-3-quinolinecarboxamide] | 3500 nM | 5200 nM | 600 nM
3 | O=C(NCc1ccc(Cl)cc1)c1cnc2c(OCCO)cc(CCCO)cc2c1O [Example 124, N-(4-Chlorobenzyl)-4-hydroxy-8-(2-hydroxyethoxy)-6-(3-hydroxypropyl)-3-quinolinecarboxamide] | 600 nM | 250 nM | 390 nM
4 | O=C(NCc1ccc(Cl)cc1)c1c[nH]c2ccc(/C=C/CO)cc2c1=O [Example 136, N-[(4-Chlorophenyl)methyl]-1,4-dihydro-6-[(1E)-3-hydroxy-1-propenyl]-4-oxo-3-quinolinecarboxamide] | 700 nM | 680 nM | 390 nM
5 | O=C(NCc1ccc(Cl)cc1)c1cnc2c(F)cc(CCCCO)cc2c1O [Example 99, N-(4-Chlorobenzyl)-8-fluoro-4-hydroxy-6-(4-hydroxybutyl)-3-quinolinecarboxamide] | 200 nM | 140 nM | 90 nM
6 | CN(C)c1ccc2ncc(C(=O)NCc3ccc(Cl)cc3)c(O)c2c1 [Example 30, N-[(4-Chlorophenyl)methyl]-6-(dimethylamino)-4-hydroxy-3-quinolinecarboxamide] | 14300 nM | 10600 nM | 7500 nM
7 | N#C/C=C/c1cc(F)c2ncc(C(=O)NCc3ccc(Cl)cc3)c(O)c2c1 [Example 133, N-(4-Chlorobenzyl)-6-[(E)-2-cyanoethenyl]-8-fluoro-4-hydroxy-3-quinolinecarboxamide] | 3200 nM | 4000 nM | 2200 nM
8 | O=C(NCc1ccc(Cl)cc1)c1cnc2cc(C(F)(F)F)ccc2c1O [Example 1, N-[(4-Chlorophenyl)methyl]-4-hydroxy-7-(trifluoromethyl)-3-quinoline-carboxamide] | 35500 nM | 38200 nM | 13300 nM
9 | O=C(NCc1ccc(Cl)cc1)c1cnc2ccc([N+](=O)[O-])cc2c1O [Example 13, N-[(4-Chlorophenyl)methyl]-4-hydroxy-6-nitro-3-quinoline-carboxamide] | 3000 nM | < 2300 nM | < 2300 nM
10 | CC(C)(CCO)c1ccc2ncc(C(=O)NCc3ccc(Cl)cc3)c(O)c2c1 [Example 125, N-(4-Chlorobenzyl)-4-hydroxy-6-(3-hydroxy-1,1-dimethylpropyl)-3-quinolinecarboxamide] | 2500 nM | 870 nM | 1700 nM
11 | O=C(CBr)OCCCc1cc(F)c2ncc(C(=O)NCc3ccc(Cl)cc3)c(O)c2c1 [Example 145, 3-(3-{[(4-Chlorobenzyl)amino]carbonyl}-8-fluoro-4-hydroxy-6-quinolinyl)propyl 2-bromoacetate] | 3500 nM | 2900 nM | 2500 nM
12 | O=C(NCc1ccc(Cl)cc1)c1cnc2c(F)cc(-c3cccs3)cc2c1O [Example 75, N-[(4-Chlorophenyl)methyl]-8-fluoro-4-hydroxy-6-(2-thiophenyl)-3-quinolinecarboxamide] | 430 nM | 170 nM | 160 nM
13 | CN(C)CC(=O)OCCCc1cc(F)c2ncc(C(=O)NCc3ccc(Cl)cc3)c(O)c2c1 [Example 148, 3-(3-{[(4-Chlorobenzyl)amino]carbonyl}-8-fluoro-4-hydroxy-6-quinolinyl)propyl 2-(dimethylamino)acetate] | 1400 nM | 2400 nM | 1000 nM
14 | O=C(NNc1ccc(Cl)cc1)c1cnc2c(F)c(F)c(F)cc2c1O [Example 16, 6,7,8-Trifluoro-4-hydroxy-3-quinolinecarboxylic acid 2-(4-chlorophenyl)hydrazide] | 2800 nM | 2700 nM | 1300 nM
15 | O=C(NCc1ccc(Cl)cc1)c1cnc2ccc(-c3cccs3)cc2c1O [Example 178, N-(4-Chlorobenzyl)-4-hydroxy-6-(2-thienyl)-3-quinolinecarboxamide] | 800 nM | 150 nM | 640 nM
16 | N#Cc1cc(F)c2ncc(C(=O)NCc3ccc(Cl)cc3)c(O)c2c1 [Example 51, N-[(4-Chlorophenyl)methyl]-6-cyano-8-fluoro-4-hydroxy-3-quinolinecarboxamide] |  | 12200 nM | 
17 | CNS(=O)(=O)c1cc(F)c2ncc(C(=O)NCc3ccc(Cl)cc3)c(O)c2c1 [Example 239, N-(4-chlorobenzyl)-8-fluoro-4-hydroxy-6-[(methylamino)sulfonyl]-3-quinolinecarboxamide] |  | 13100 nM | 
18 | CCCCCNS(=O)(=O)c1cc(F)c2ncc(C(=O)NCc3ccc(Cl)cc3)c(O)c2c1 [Example 235, N-(4-chlorobenzyl)-8-fluoro-4-hydroxy-6-[(pentylamino)sulfonyl]-3-quinolinecarboxamide] |  | 11800 nM | 
19 | Nc1cc(F)c2ncc(C(=O)NCc3ccc(Cl)cc3)c(O)c2c1 [Example 186, 6-Amino-N-(4-chlorobenzyl)-8-fluoro-4-hydroxy-3-quinolinecarboxamide] |  | 13800 nM | 
20 | CC(C)Oc1c(F)cc2c(O)c(C(=O)NCc3ccc(Cl)cc3)cnc2c1F [Example 86, N-((4-Chlorophenyl)methyl)-6,8-difluoro-4-hydroxy-7-(1-methylethoxy)-3-quinolinecarboxamide] |  | 10700 nM | 
21 | O=C(NCc1ccc(Cl)cc1)c1cnc2c(F)cc(S(=O)(=O)NCc3ccc(Br)cc3)cc2c1O [Example 254, 6-{[(4-bromobenzyl)amino]sulfonyl}-N-(4-chlorobenzyl)-8-fluoro-4-hydroxy-3-quinolinecarboxamide] |  | 14700 nM | 
22 | CN(C)C(=O)c1cc(F)c2ncc(C(=O)NCc3ccc(Cl)cc3)c(O)c2c1 [Example 182, N^3-(4-Chlorobenzyl)-8-fluoro-4-hydroxy-N^6,N^6-dimethyl-3,6-quinolinedicarboxamide] |  | 5000 nM | 
23 | COc1cc2ncc(C(=O)NCc3ccc(Cl)cc3)c(O)c2cc1OC [Example 61, N-((4-Chlorophenyl)methyl)-4-hydroxy-6,7-dimethoxy-3-quinolinecarboxamide] |  | 3100 nM | 
24 | COc1ccc(S(=O)(=O)Nc2cc(F)c3ncc(C(=O)NCc4ccc(Cl)cc4)c(O)c3c2)cc1 [Example 187, N-(4-Chlorobenzyl)-8-fluoro-4-hydroxy-6-{[(4-methoxyphenyl)-sulfonyl]amino}-3-quinolinecarboxamide] |  | 17700 nM | 
25 | O=C(NCc1ccc(Cl)cc1)c1cnc2c(F)cc(S(=O)(=O)NCCNc3ccc([N+](=O)[O-])cn3)cc2c1O [Example 215, N-(4-chlorobenzyl)-8-fluoro-4-hydroxy-6-[({2-[(5-nitro-2-pyridinyl)amino]ethyl}amino)sulfonyl]-3-quinolinecarboxamide] |  | 8600 nM | 
26 | O=C(NCc1ccc(Cl)cc1)c1cnc2c(F)ccc(F)c2c1O [Example 17, N-[(4-Chlorophenyl)methyl]-5,8-difluoro-4-hydroxy-3-quinolinecarboxamide] |  | 3300 nM | 
27 | O=C(NCc1ccc(Cl)cc1)c1cnc2c(F)cc(SCCN3CCOCC3)cc2c1O [Example 174] |  | 28900 nM | 
28 | O=C(NCc1ccc(Cl)cc1)c1cnc2c(F)cc(S(=O)(=O)NCc3ccncc3)cc2c1O [Example 219, N-(4-chlorobenzyl)-8-fluoro-4-hydroxy-6-{[(4-pyridinylmethyl)amino]sulfonyl}-3-quinolinecarboxamide] |  | 11000 nM | 
